The results in this text go back to patent US20250339426A1, “GCN2 MODULATOR FOR TREATING CANCER” (HIBERCELL, INC., priority 2022, published 2025).

The subject of experiment [1] is newly synthesized proteins. Kind of experiment: Puromycin labeling of newly synthesized proteins. It is filed as cell-based. Conditions: 100 nM.
Another experiment deals with FaDu tumors and plasma. Kind of experiment: Metabolomic analysis of tumor and plasma, FaDu tumor bearing mice. The class given is in vivo. As for the experimental part: FaDu tumor bearing mice were treated with vehicle or HC-7366 (1, 3, or 30 mg/kg) twice a day orally for three days, and on the morning of Day 4 an AM dose was administered and tumors and plasma were collected 1 hr after dose. Tumor and plasma samples were extracted and split into equal parts for analysis on LC/MS/MS and Polar LC platforms. Proprietary software was used to match ions to an in-house library of standards for metabolite identification and for metabolite quantitation by peak area integration (Metabolon). Proteomic analysis on tumors was performed at MS Bioworks. The equivalent of 3 μg of peptide from each pooled fraction was analyzed by nano LC-MS/MS with a Waters M-Class HPLC system interfaced to a ThermoFisher Fusion Lumos mass spectrometer. Histograms show metabolite levels of treatment groups normalized to vehicle control (FIGS. 115-122).

A further experiment deals with CTG-2456. Kind of experiment: Ex vivo AML PDX cell viability (Cell Titer Glo). The class given is cell-based. The note with it: Homo sapiens, 144 h; PDX model CTG-2456, 6 days; read-out: HC-7366 EC50. The procedure: (§1) . Cell viability was assayed after treating PDX models with DMSO or HC-7366 for 6 days using a plate-based luminescence assay (Cell Titer Glo). […]
(§2) EC50 values were calculated to the bottom of the curve and are provided below. Viability curves are provided for the models CTG-2229 (FIG. 81), CTG-3680 (FIG. 82), CTG-3667 (FIG. 83), CTG-2456 (FIG. 84), CTG-2457 (FIG. 85), and CTG-2454 (FIG. 86).

For another experiment, the system named is CTG-2239. Kind of experiment: Ex vivo AML PDX cell viability (Cell Titer Glo). The note with it: Homo sapiens, 144 h; PDX model CTG-2239, 6 days; read-out: HC-7366 EC50. The class given is cell-based. As for the experimental part: as §1, §2
The next experiment relates to CTG-2700. Kind of experiment: Ex vivo AML PDX cell viability (Cell Titer Glo). The class given is cell-based. Conditions: Homo sapiens, 144 h; PDX model CTG-2700, 6 days; read-out: HC-7366 EC50. The procedure:
as §1, §2

With `CNC(=O)c1ncn2cc(-c3c(F)ccc(NS(=O)(=O)c4cc(Cl)cnc4OC)c3F)ncc12` [HC-7366, 6-(3-((5-chloro-2-methoxypyridine)-3-sulfonamido)-2,6-difluorophenyl)-N-methylimidazo[1,5-a]pyrazine-1-carboxamide], in experiment [1], the “puromycin labeling of newly synthesized proteins” value is recorded as “potently reduced”. The urea levels result with FaDu tumors and plasma (plasma) is listed as “significantly increased”. In the experiment on FaDu tumors and plasma (tumor), the oxidized glutathione levels entry is “significantly reduced”. Besides, the reduced glutathione levels result in the experiment on FaDu tumors and plasma (tumor) is reported as “did not alter”. Moreover, the “gamma glutamyl amino acid levels” value in the experiment with FaDu tumors and plasma (tumor and plasma) is on record as “significantly increased”. The “levels of several amino acids” value with FaDu tumors and plasma (tumor and plasma, 1, 3, or 30 mg/kg twice a day, Day 4) is recorded as “significantly elevated”. In the experiment with FaDu tumors and plasma (tumors), the “levels of arginine, arginosuccinate and citrulline” value is recorded as “significantly increased”. Besides, in the experiment with FaDu tumors and plasma (tumors), the pyrimidine synthesis metabolites result is on record as “significantly reduced”. Also, the figures for the EC50 in the experiment with CTG-2456, in the experiment on CTG-2239 and with CTG-2700 were 31.8 µM, 1170 µM and 333 µM, respectively.
